According to patent US7687507B2, “Pyrrolo[2,3-d]pyrimidine compounds” (Pfizer Inc., priority 1998, dated 2010):

Row | Structure (SMILES) | melting point
1 | CCN(c1ncnc2[nH]ccc12)C1CCCCCC1 [Example 14, Cycloheptyl-ethyl-(7H-pyrrolo[2,3-d]pyrimidin-4-yl)-amine] | 168 to 169 °C
2 | CN(c1ncnc2[nH]cc(Cl)c12)C1CCCCCC1 [Example 93, (5-Chloro-7H-pyrrolo[2,3-d]pyrimidin-4-yl)-cycloheptyl-methyl-amine] | 152 to 153 °C
3 | c1nc(SC2CCCCC2)c2cc[nH]c2n1 [Example 90, 4-Cyclohexylsulfanyl-7H-pyrrolo[2,3-d]pyrimidine] | 162 to 163 °C
4 | CN(c1ncnc2[nH]cc(-c3ccccc3)c12)C1CCCCC1 [Example 96, Cyclohexyl-methyl-(5-phenyl-7H-pyrrolo[2,3-d]pyrimidin-4-yl)amine] | 200 °C
5 | Clc1c[nH]c2ncnc(N3CCCCC3)c12 [Example 91, 5-Chloro-4-piperidin-1-yl-7H-pyrrolo[2,3-d]pyrimidine] | 170 to 172 °C
6 | CCN(Cc1ccccc1)c1ncnc2[nH]ccc12 [Example 2, Benzyl-ethyl-(7H-pyrrolo[2,3-d]pyrimidin-4-yl)-amine] | 170 to 172 °C
7 | CN(c1ncnc2[nH]cc(Cl)c12)C1CCCCCCC1 [Example 94, (5-Chloro-7H-pyrrolo[2,3-d]pyrimidin-4-yl)-cyclooctyl-methyl-amine] | 151 to 153 °C
8 | CCC(C)N(C)c1ncnc2[nH]ccc12 (centres unmarked) [Example 26, sec-Butyl-methyl-(7H-pyrrolo[2,3-d]pyrimidin-4-yl)-amine] | 146 to 148 °C
9 | C#Cc1c[nH]c2ncnc(N3CCCCC3)c12 [Example 101, 5-Ethynyl-4-piperidin-1-yl-7H-pyrrolo[2,3-d]pyrimidine] | 179 to 181 °C
10 | CN(c1ncnc2[nH]cc(-c3ccc(F)cc3)c12)C1CCCCC1 [Example 97, Cyclohexyl-[5-(4-fluoro-Phenyl)-7H-pyrrolo[2,3-d]pyrimidin-4-yl]-methyl-amine] | 220 °C
11 | CCN(c1ncnc2[nH]ccc12)C1CCCCCCC1 [Example 15, Cyclooctyl-ethyl-(7H-pyrrolo[2,3-d]pyrimidin-4-yl)-amine] | 155 to 156 °C
12 | C=CCN(c1ncnc2[nH]ccc12)C1CCCC1 [Example 6, Allyl-cyclopentyl-(7H-pyrrolo[2,3-d]pyrimidin-4-yl)-amine] | 173 to 175 °C
13 | N#Cc1c[nH]c2ncnc(N3CCCCC3)c12 [Example 100, 4-Piperidin-1-yl-7H-pyrrolo[2,3-d]pyrimidine-5-carbonitrile] | 209 to 211 °C
14 | Cc1cc2c(N(C)C3CCCCC3)ncnc2[nH]1 [Example 87, Cyclohexyl-methyl-(6-methyl-7H-pyrrolo[2,3-d]pyrimidin-4-yl)-amine] | 221 °C (dec.)
